Assay results as given in patent US9451909B2, “System and method for detecting amyloid proteins” (Cognoptix, Inc., priority 2010, dated 2016).

Experiments:
[1] = biological target: T1, aggregated Aβ(1-42) peptide (Homo sapiens, UniProt P05067); assay: In vitro fluorescence lifetime measurements of Compound #11 with aggregated Aβ peptide (SAPPHIRE II device); type: binding
T1 construct: Aggregated Aβ peptide was prepared by dissolving Aβ(1-42) in PBS pH 7.4
Experimental: (§1) In accordance with an embodiment of the invention, in vitro studies on aggregated Aβ peptides bound to Compound #11 were performed. Fluorescence lifetime measurements of Compound #11 with aggregated Aβ peptide were performed using a device in accordance with an embodiment of the invention. FIG. 8A is a fluorescence lifetime image showing Compound #11 and Compound #11 bound to aggregated Aβ peptide, with their corresponding fluorescence lifetime histograms shown in FIG. 8B, in accordance with an embodiment of the invention. By fitting the lifetime histograms, the decay rates are determined. […] An experimental description follows.
(§2) The purpose of this in vitro study was to identify the optical signature of the Compound #11 amyloid-binding compound, and to characterize its fluorescence properties when bound to aggregated Aβ peptide. […]
(§3) The Neuroptix SAPPHIRE II device (Neuroptix Corporation, Acton, Mass., U.S.A.) is a purpose built device for clinical studies in humans, which was adapted for in vitro measurements for this experiment. It employs a confocal scanning mechanism combined with fluorescence lifetime spectroscopy that allows differentiation of fluorophores. The device allows 1) scanning of the optical beam to specific locations in the anterior segments of the eye, such as the supranucleus and 2) identification of fluorescent fluorophores based on fluorescence lifetime measurements.
(§4) Aggregated Aβ peptide was prepared by dissolving Aβ(1-42) in PBS pH 7.4 to a final concentration of 100 μM. […] The solution was transferred to 5 mL vial and the fluorescence measurements were performed at 25° C.
(§5) The sample consisting of Compound #11 was placed in front of the Neuroptix SAPPHIRE II Device. Once the location of the scan in the sample was determined, a raster scan was performed to obtain fluorescence lifetime measurements. […] The shading that makes up most of the image background represents a lifetime decay of 1.4 nsec, which corresponds to that of the fluorescence amyloid-binding compound. […]

[2] = system: aggregated Aβ(1-42) peptide; assay: as above; type: binding; details: unbound; 4 μM Compound #11, PBS, 25° C.
Experimental: as §1, §2, §3, §4, §5

[3] = Ocular pharmacokinetics study, topical ointment, fluorescence lifetime and intensity measurements in the lens; type: in vivo, Dutch-belted rabbits
Experimental: Ocular pharmacokinetic investigation of dose response via topical administration of fluorescence amyloid-binding compound was performed in Dutch-belted rabbits. The rabbits were tested each day over a 4 day period using Compound #11 amyloid-binding compound in an ointment. Two animals were dosed in the right eye with Compound #11 (0.5%) in ointment form. One animal was untreated and used as control animal. The animals were dosed at specific time points for four days and tested with SAPPHIRE II system for fluorescence intensity and lifetime measurements at the beginning and end of each day.
All animals were dosed with Compound #11 via topical ocular application and tested in the right eye. Animals were anesthetized and manually held on a platform in front of the Neuroptix SAPPHIRE II device. Gross positioning was done by the animal handler, and fine tuning of the measurement location was done by the Neuroptix SAPPHIRE II operator. Once aligned, the SAPPHIRE II operator initiated the measurement sequence. Baseline measurements were made on the animals before dosing, and then at the beginning and end of each day (Table 1).
Fluorescence lifetime and intensity measurements were performed in the eye at the beginning and at the end of each day. The measurements entailed scanning the rabbit eye axially (z-scan) to obtain inter-ocular information and a planar scan (xy-scan) to perform lifetime decay measurements in a certain region of the eye, which is the lens nucleus in this case.
Once the location of interest was identified, Time Correlation Single Photon Counting (TCSPS) was initiated while performing the xy-scan. The fluorescence lifetime images were then obtained where the decay lifetime histogram was obtained for each pixel location. The calculated decay times were color coded in the fluorescence lifetime image. Each measurement was performed three times. The frequency count of photons of specific decay rates were calculated from the decay rates frequency that of the Compound #11 signature obtained in the xy-scan and averaged over the three measurements. […] The device was specifically designed for human use but the platform was slightly modified for holding the rabbits.
Group 1: Animals were anesthetized with subcutaneous injection of Dexdomitor (0.5 mg/kg), Ketamine (5 mg/kg). A ribbon of ointment approximately ½ inch long was then applied to the lower right eyelid of each animal in the test group three times a day for four days.

[4] = Fluorescence spectra and fluorescence lifetime histogram of Compound #11; type: physicochemical
Source text: In an embodiment according to the invention, the light source may be configured to emit light of an appropriate wavelength for a peak region of a fluorescent excitation spectrum for the amyloid-binding compound bound to the amyloid protein in the eye, and the optical unit may be configured to detect light of an appropriate wavelength for a peak region of a fluorescent emission spectrum for the amyloid-binding compound bound to the amyloid protein in the eye. For example, where the amyloid-binding compound is Compound #11, the excitation spectrum has a peak of about 470 nm, and the light source may be configured to emit light within plus or minus about 20 nm of the peak of about 470 nm, such as within plus or minus 5 nm, plus or minus 10 nm, plus or minus 15 nm or plus or minus 20 nm of 470 nm. Further, the emission spectrum for Compound #11 has a peak of about 580 nm, and the optical unit may be configured to detect light within plus or minus about 20 nm of the peak of about 580 nm, such as within plus or minus 5 nm, plus or minus 10 nm, plus or minus 15 nm or plus or minus 20 nm of 580 nm. In general, there is typically a shift between the peak of the excitation spectrum and the peak of the emission spectrum of a fluorescent compound. […] For example, an emission spectrum having a peak greater than about 500 nm is advantageous for distinguishing from the natural autofluorescence of the eye. […] FIG. 12 is an emission spectrum of the fluorescent amyloid-binding compound Compound #11 when excited at 470 nm, in accordance with an embodiment of the invention. Other excitation and emission spectra that may be used will be apparent to those of skill in the art based on the foregoing.
A fluorescent histogram of the fluorescent amyloid-binding compound Compound #11 is shown in FIG. 6, obtained by a device in accordance with an embodiment of the invention. Single exponential fitting results in a lifetime decay rate of 2 nsec.

[5] = biological target: aggregated beta-amyloid (Aβ) peptide (Homo sapiens, UniProt P05067); details: cited from earlier work
aggregated beta-amyloid (Aβ) peptide, sequence (P05067 672-713 limits assumed): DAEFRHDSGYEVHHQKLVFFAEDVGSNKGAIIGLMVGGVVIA

T1 sequence (P05067 672-713): as the sequence (P05067 672-713 limits assumed) above

Compound: COCCOCCOCCOC(=O)/C(C#N)=C/c1ccc2cc(N3CCCCC3)ccc2c1 [Compound #11, (E)-2-(2-(2-methoxyethoxy)ethoxy)ethyl-2-cyano-3-(6-(piperidin-1-yl)naphthalen-2-yl)acrylate]
- difference in fluorescence lifetime, bound vs unbound ([1]; Compound #11 vs Compound #11 bound to aggregated Aβ peptide): 0.85 nsec
- fluorescence lifetime decay (time decay rate) of compound bound to aggregated Aβ peptide ([1]; bound to aggregated Aβ(1-42) 5 μM, 4 μM Compound #11, 25° C.): 2.25 nsec
- fluorescence lifetime decay (time decay rate) of unbound compound [2]: 1.4 nsec
- fluorescence signal after repetitive topical administration ([3]; 5 mg/g in ointment form, three times a day for four days): Detectable fluorescence signal
- decay rate in lifetime image of the lens (xy-scan) ([3]; animal 1003, end of fourth day): 2 nsec
- change of fluorescence in the lens nucleus over four days ([3]; measured at beginning and end of each day, 4 days, rabbits 1002 and 1003): increase of Compound #11 fluorescence
- time of stay in the lens nucleus ([3]; repetitive topical administration): at least 12 hours
- accumulation in the lens nucleus ([3]; repetitive topical administration, after several hours of application): tended to accumulate in the nucleus
- penetration of the cornea and detection in the lens ([3]; topical ocular, rabbit eyes): penetrate the cornea and be detected by the device in the lens
- excitation spectrum peak [4]: about 470 nm
- emission spectrum peak ([4]; excited at 470 nm): about 580 nm
- lifetime decay rate ([4]; single exponential fitting of fluorescent histogram (FIG. 6)): 2 nsec
- binding to aggregated beta-amyloid (Aβ) peptide [5]: has been shown to bind
